{"source": "patent US9655884B2", "about": "“Antiparasitic use of isoxazoline compounds” (Intervet Inc., priority 2013, dated 2017)", "test_system": "C. felis", "assay": "In vivo study in dogs to assess flea control efficacy in a simulated home environment", "settings": "25 mg/kg oral; for Mean flea numbers (arithmetic), Treated group / Mean flea numbers (geometric), Treated group: 25 mg/kg", "experimental": "Twenty healthy male and female mixed-breed dogs ≧12 weeks old were housed in individual pens. Ten dogs per group were randomly assigned to receive either a fluralaner chewable tablet (Bravecto™) or no treatment. Each pen contained the bottom half of a dog carrier lined with carpet as bedding. Before treatment, each dog was infested twice (28 and 21 days pretreatment) with 100 adult, unfed C. felis to establish a flea population prior to treatment on each dog. Flea media was added to the carpet 4 weeks before the treatment date and weekly thereafter for the remainder of the study to encourage development of an active, developing population of juvenile flea stages in each pen. On the treatment day, dogs in the treated group received fluralaner at a dose close to 25 mg/kg body weight by oral administration. The chewable tablet(s) were administered by placement in the back of the oral cavity over the tongue to initiate swallowing. Dogs in the negative control group remained untreated. Flea counts were performed on all dogs 1 day before treatment, 1 day after treatment and then every 7 days until completion of the study 84 days later. All live fleas recovered were held and re-infested on the dog after the comb count was completed. Each dog was also infested with 50 newly emerged unfed adult fleas on days 22, 50 and 78 to simulate natural infestation post-treatment. The individual dog was the experimental unit and data from each flea count time point were analyzed separately. Flea count data were transformed [Y=loge(x+1)] and analyzed by a mixed linear model including treatment as the fixed effect and block as the random effect. Kenward-Rogers adjustment was used to determine the denominator degree of freedom. A two-tailed test was used within the mixed linear model for the comparison between treatment groups and statistical significance was declared when P≦0.05. SAS version 9.3 was the primary software used for analysis. Efficacy was calculated using arithmetic and geometric means with Abbott's formula: Efficacy (%)=100×(MC−MT)/MC, where MC was the arithmetic or geometric mean number of total adult live fleas on untreated dogs and MT the arithmetic or geometric mean number of total adult live fleas on treated dogs.", "key": {"[1]": {"settings": "day 1 post treatment, listed as fluranaler"}, "[2]": {"settings": "day 7 post treatment, listed as fluranaler"}, "[3]": {"settings": "day 14 post treatment, listed as fluranaler"}, "[4]": {"settings": "day 21 post treatment, listed as fluranaler"}, "[5]": {"settings": "day 28 post treatment, listed as fluranaler"}, "[6]": {"settings": "day 35 post treatment, listed as fluranaler"}, "[7]": {"settings": "day 42 post treatment, listed as fluranaler"}, "[8]": {"settings": "day 49 post treatment, listed as fluranaler"}, "[9]": {"settings": "day 56 post treatment, listed as fluranaler"}, "[10]": {"settings": "day 63 post treatment, listed as fluranaler"}, "[11]": {"settings": "day 70 post treatment, listed as fluranaler"}, "[12]": {"settings": "day 77 post treatment, listed as fluranaler"}, "[13]": {"settings": "day 84 post treatment, listed as fluranaler"}}}
{"molecule": "Cc1cc(C2=NOC(c3cc(Cl)cc(Cl)c3)(C(F)(F)F)C2)ccc1C(=O)NCC(=O)NCC(F)(F)F", "note": "(stereo not shown) [fluralaner, 4-[5-(3,5-Dichlorophenyl)-5-trifluoromethyl-4,5-dihydroisoxazol-3-yl]-2-methyl-N-[(2,2,2-trifluoro-ethylcarbamoyl)-methyl]-benzamide]", "values": [{"measurement": "Flea-control efficacy", "setting": "all post-treatment time points (12-week post-treatment period)", "result": "~100", "unit": "%"}, {"measurement": "Efficacy (from arithmetic mean flea counts)", "setting": "day 1 post treatment", "result": "100/100%"}, {"measurement": "Efficacy (from geometric mean flea counts)", "setting": "day 1 post treatment", "result": "100/100%"}, {"measurement": "Mean flea numbers (arithmetic), Treated group", "setting": "day 1 post treatment", "result": 0}, {"measurement": "Mean flea numbers (geometric), Treated group", "setting": "day 1 post treatment", "result": 0}, {"measurement": "Mean flea numbers (arithmetic), Treated group", "setting": "[1]", "result": "0/0"}, {"measurement": "Mean flea numbers (geometric), Treated group", "setting": "[1]", "result": "0/0"}, {"measurement": "Efficacy (from arithmetic mean flea counts)", "setting": "day 7 post treatment", "result": "100/100%"}, {"measurement": "Efficacy (from geometric mean flea counts)", "setting": "day 7 post treatment", "result": "100/100%"}, {"measurement": "Mean flea numbers (arithmetic), Treated group", "setting": "day 7 post treatment", "result": 0}, {"measurement": "Mean flea numbers (geometric), Treated group", "setting": "day 7 post treatment", "result": 0}, {"measurement": "Mean flea numbers (arithmetic), Treated group", "setting": "[2]", "result": "0/0"}, {"measurement": "Mean flea numbers (geometric), Treated group", "setting": "[2]", "result": "0/0"}, {"measurement": "Efficacy (from arithmetic mean flea counts)", "setting": "day 14 post treatment", "result": "100/100%"}, {"measurement": "Efficacy (from geometric mean flea counts)", "setting": "day 14 post treatment", "result": "100/100%"}, {"measurement": "Mean flea numbers (arithmetic), Treated group", "setting": "day 14 post treatment", "result": 0}, {"measurement": "Mean flea numbers (geometric), Treated group", "setting": "day 14 post treatment", "result": 0}, {"measurement": "Mean flea numbers (arithmetic), Treated group", "setting": "[3]", "result": "0/0"}, {"measurement": "Mean flea numbers (geometric), Treated group", "setting": "[3]", "result": "0/0"}, {"measurement": "Efficacy (from arithmetic mean flea counts)", "setting": "day 21 post treatment", "result": "100/100%"}, {"measurement": "Efficacy (from geometric mean flea counts)", "setting": "day 21 post treatment", "result": "100/100%"}, {"measurement": "Mean flea numbers (arithmetic), Treated group", "setting": "day 21 post treatment", "result": 0}, {"measurement": "Mean flea numbers (geometric), Treated group", "setting": "day 21 post treatment", "result": 0}, {"measurement": "Mean flea numbers (arithmetic), Treated group", "setting": "[4]", "result": "0/0"}, {"measurement": "Mean flea numbers (geometric), Treated group", "setting": "[4]", "result": "0/0"}, {"measurement": "Efficacy (from arithmetic mean flea counts)", "setting": "day 28 post treatment", "result": "100/100%"}, {"measurement": "Efficacy (from geometric mean flea counts)", "setting": "day 28 post treatment", "result": "100/100%"}, {"measurement": "Mean flea numbers (arithmetic), Treated group", "setting": "day 28 post treatment", "result": 0}, {"measurement": "Mean flea numbers (geometric), Treated group", "setting": "day 28 post treatment", "result": 0}, {"measurement": "Mean flea numbers (arithmetic), Treated group", "setting": "[5]", "result": "0/0"}, {"measurement": "Mean flea numbers (geometric), Treated group", "setting": "[5]", "result": "0/0"}, {"measurement": "Efficacy (from arithmetic mean flea counts)", "setting": "day 35 post treatment", "result": "100/100%"}, {"measurement": "Efficacy (from geometric mean flea counts)", "setting": "day 35 post treatment", "result": "100/100%"}, {"measurement": "Mean flea numbers (arithmetic), Treated group", "setting": "day 35 post treatment", "result": 0}, {"measurement": "Mean flea numbers (geometric), Treated group", "setting": "day 35 post treatment", "result": 0}, {"measurement": "Mean flea numbers (arithmetic), Treated group", "setting": "[6]", "result": "0/0"}, {"measurement": "Mean flea numbers (geometric), Treated group", "setting": "[6]", "result": "0/0"}, {"measurement": "Efficacy (from arithmetic mean flea counts)", "setting": "day 42 post treatment", "result": "100/100%"}, {"measurement": "Efficacy (from geometric mean flea counts)", "setting": "day 42 post treatment", "result": "100/100%"}, {"measurement": "Mean flea numbers (arithmetic), Treated group", "setting": "day 42 post treatment", "result": 0}, {"measurement": "Mean flea numbers (geometric), Treated group", "setting": "day 42 post treatment", "result": 0}, {"measurement": "Mean flea numbers (arithmetic), Treated group", "setting": "[7]", "result": "0/0"}, {"measurement": "Mean flea numbers (geometric), Treated group", "setting": "[7]", "result": "0/0"}, {"measurement": "Efficacy (from arithmetic mean flea counts)", "setting": "day 49 post treatment", "result": 99.8, "unit": "%"}, {"measurement": "Efficacy (from geometric mean flea counts)", "setting": "day 49 post treatment", "result": 99.7, "unit": "%"}, {"measurement": "Mean flea numbers (arithmetic), Treated group", "setting": "day 49 post treatment", "result": 0.1}, {"measurement": "Mean flea numbers (geometric), Treated group", "setting": "day 49 post treatment", "result": 0.1}, {"measurement": "Mean flea numbers (arithmetic), Treated group", "setting": "[8]", "result": "0.1/0.1"}, {"measurement": "Mean flea numbers (geometric), Treated group", "setting": "[8]", "result": "0.1/0.1"}, {"measurement": "Efficacy (from arithmetic mean flea counts)", "setting": "day 56 post treatment", "result": "99.8/99.8%"}, {"measurement": "Efficacy (from geometric mean flea counts)", "setting": "day 56 post treatment", "result": "99.8/99.8%"}, {"measurement": "Mean flea numbers (arithmetic), Treated group", "setting": "day 56 post treatment", "result": 0.1}, {"measurement": "Mean flea numbers (geometric), Treated group", "setting": "day 56 post treatment", "result": 0.1}, {"measurement": "Mean flea numbers (arithmetic), Treated group", "setting": "[9]", "result": "0.1/0.1"}, {"measurement": "Mean flea numbers (geometric), Treated group", "setting": "[9]", "result": "0.1/0.1"}, {"measurement": "Efficacy (from arithmetic mean flea counts)", "setting": "day 63 post treatment", "result": "100/100%"}, {"measurement": "Efficacy (from geometric mean flea counts)", "setting": "day 63 post treatment", "result": "100/100%"}, {"measurement": "Mean flea numbers (arithmetic), Treated group", "setting": "day 63 post treatment", "result": 0}, {"measurement": "Mean flea numbers (geometric), Treated group", "setting": "day 63 post treatment", "result": 0}, {"measurement": "Mean flea numbers (arithmetic), Treated group", "setting": "[10]", "result": "0/0"}, {"measurement": "Mean flea numbers (geometric), Treated group", "setting": "[10]", "result": "0/0"}, {"measurement": "Efficacy (from arithmetic mean flea counts)", "setting": "day 70 post treatment", "result": 99.7, "unit": "%"}, {"measurement": "Efficacy (from geometric mean flea counts)", "setting": "day 70 post treatment", "result": 99.6, "unit": "%"}, {"measurement": "Mean flea numbers (arithmetic), Treated group", "setting": "day 70 post treatment", "result": 0.1}, {"measurement": "Mean flea numbers (geometric), Treated group", "setting": "day 70 post treatment", "result": 0.1}, {"measurement": "Mean flea numbers (arithmetic), Treated group", "setting": "[11]", "result": "0.1/0.1"}, {"measurement": "Mean flea numbers (geometric), Treated group", "setting": "[11]", "result": "0.1/0.1"}, {"measurement": "Efficacy (from arithmetic mean flea counts)", "setting": "day 77 post treatment", "result": "100/100%"}, {"measurement": "Efficacy (from geometric mean flea counts)", "setting": "day 77 post treatment", "result": "100/100%"}, {"measurement": "Mean flea numbers (arithmetic), Treated group", "setting": "day 77 post treatment", "result": 0}, {"measurement": "Mean flea numbers (geometric), Treated group", "setting": "day 77 post treatment", "result": 0}, {"measurement": "Mean flea numbers (arithmetic), Treated group", "setting": "[12]", "result": "0/0"}, {"measurement": "Mean flea numbers (geometric), Treated group", "setting": "[12]", "result": "0/0"}, {"measurement": "Efficacy (from arithmetic mean flea counts)", "setting": "day 84 post treatment", "result": "100/100%"}, {"measurement": "Efficacy (from geometric mean flea counts)", "setting": "day 84 post treatment", "result": "100/100%"}, {"measurement": "Mean flea numbers (arithmetic), Treated group", "setting": "day 84 post treatment", "result": 0}, {"measurement": "Mean flea numbers (geometric), Treated group", "setting": "day 84 post treatment", "result": 0}, {"measurement": "Mean flea numbers (arithmetic), Treated group", "setting": "[13]", "result": "0/0"}, {"measurement": "Mean flea numbers (geometric), Treated group", "setting": "[13]", "result": "0/0"}]}
